Biological target: T1, BCL6 (Homo sapiens, UniProt P41182)
T1 construct: HiBiT-tag knocked into endogenous BCL6 locus using CRISPR; endogenous in cells; host or cells: DHL-4_BCL6_HiBiT cells (CRISPR knock-in)
Test: BCL6_HiBiT degradation assay (2 h)
Assay type: cell-based
Conditions: DHL-4_BCL6_HiBiT cells; for Percent BCL6 remaining at maximal degradation (Ycon): read-out: YCon (% remaining maximal effect)
Method in brief: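 DHL-4 cells carrying CRISPR HiBiT knock-in at endogenous BCL6, treated 2 h at 37 °C with 10-point 3-fold dilutions from 1-10 μM. BCL6 level read by Nano-Glo HiBiT lytic luminescence normalized to DMSO; four-parameter fit gives degradation EC50 and Yconstant (% remaining at maximal effect).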

SMILES | Percent BCL6 remaining at maximal degradation (Ycon) | YCon (% remaining maximal effect)
C[C@@H]1CN(c2ncc(Cl)c(Nc3cnc4c(c3)CC(=O)N4C)n2)CC[C@H]1Nc1ccc2c(C3CCC(=O)NC3=O)nn(C)c2c1 (stereo partly drawn) [Example 74, 3-(6-(((3R,4R)-1-(5-chloro-4-((1-methyl-2-oxo-2,3-dihydro-1H-pyrrolo[2,3-b]pyridin-5-yl)amino)pyrimidin-2-yl)-3-methylpiperidin-4-yl)amino)-1-methyl-1H-indazol-3-yl)piperidine-2,6-dione] | 20 to 60% | –
CC1C(=O)N(c2ccc3c(C4CCC(=O)NC4=O)nn(C)c3c2)CCN1c1ncc(Cl)c(Nc2ccc3c(c2)CC(=O)N3C)n1 (stereo not shown) [Example 38, 3-(6-(4-(5-chloro-4-((1-methyl-2-oxoindolin-5-yl)amino)pyrimidin-2-yl)-3-methyl-2-oxopiperazin-1-yl)-1-methyl-1H-indazol-3-yl)piperidine-2,6-dione] | > 60% | –
CO[C@@H]1CN(c2ncc(Cl)c(Nc3ccc4c(c3)CC(=O)N4C)n2)CC[C@H]1Nc1ccc2c(C3(C)CCC(=O)NC3=O)nn(C)c2c1 (stereo partly drawn) [Example 154, 3-(6-(((3R,4R)-1-(5-chloro-4-((1-methyl-2-oxoindolin-5-yl)amino)pyrimidin-2-yl)-3-methoxypiperidin-4-yl)amino)-1-methyl-1H-indazol-3-yl)-3-methylpiperidine-2,6-dione] | 20 to 60% | –
C[C@@H]1CN(c2ncc(Cl)c(Nc3cnc4c(c3)CC(=O)N4C)n2)CC[C@H]1Nc1ccc2c(N3CCC(=O)NC3=O)nn(C)c2c1 [Example 143, 1-(6-(((3R,4R)-1-(5-chloro-4-((1-methyl-2-oxo-2,3-dihydro-1H-pyrrolo[2,3-b]pyridin-5-yl)amino)pyrimidin-2-yl)-3-methylpiperidin-4-yl)amino)-1-methyl-1H-indazol-3-yl)dihydropyrimidine-2,4(1H,3H)-dione] | < 20% | –
Cn1nc(N2CCC(=O)NC2=O)c2ccc(NC3CCN(c4ncc(Cl)c(Nc5ccc6c(c5)CC(=O)N6CCO)n4)CC3)cc21 [Example 137, 1-(6-((1-(5-chloro-4-((1-(2-hydroxyethyl)-2-oxoindolin-5-yl)amino)pyrimidin-2-yl)piperidin-4-yl)amino)-1-methyl-1H-indazol-3-yl)dihydropyrimidine-2,4(1H,3H)-dione] | 20 to 60% | –
Cn1nc(C2CCC(=O)NC2=O)c2ccc(NC3CCN(c4ncc(Cl)c(Nc5ccc6c(c5)CC(=O)N6CC(F)(F)F)n4)CC3)cc21 (stereo not shown) [Example 18, 3-(6-((1-(5-chloro-4-((2-oxo-1-(2,2,2-trifluoroethyl)indolin-5-yl)amino)pyrimidin-2-yl)piperidin-4-yl)amino)-1-methyl-1H-indazol-3-yl)piperidine-2,6-dione] | > 60% | –
C[C@@H]1CN(c2ncc(Cl)c(Nc3ccc4c(c3)CC(=O)N4C)n2)CC[C@H]1Nc1cc2c(cn1)c(C1CCC(=O)NC1=O)nn2C (stereo partly drawn) [Example 86, 3-(6-(((3R,4R)-1-(5-chloro-4-((1-methyl-2-oxoindolin-5-yl)amino)pyrimidin-2-yl)-3-methylpiperidin-4-yl)amino)-1-methyl-1H-pyrazolo[4,3-c]pyridin-3-yl)piperidine-2,6-dione] | < 20% | –
C[C@H]1C[C@H](N(C)c2ccc3c([C@H]4CCC(=O)NC4=O)nn(C)c3c2)CCN1c1ncc(Cl)c(Nc2ccc3c(c2)CC(=O)N3C)n1 (single isomer, unassigned) [Example 87] | > 60% | –
CN1C(=O)Cc2cc(Nc3nc(N4CCCN(c5ccc6c(C7CCC(=O)NC7=O)nn(C)c6c5)CC4)ncc3Cl)ccc21 (stereo not shown) [Example 32, 3-(6-(4-(5-chloro-4-((1-methyl-2-oxoindolin-5-yl)amino)pyrimidin-2-yl)-1,4-diazepan-1-yl)-1-methyl-1H-indazol-3-yl)piperidine-2,6-dione] | > 60% | –
CC(C)N1C(=O)Cc2cc(Nc3nc(N4CC[C@@H](Nc5ccc6c(C7CCC(=O)NC7=O)nn(C)c6c5)[C@H](C)C4)ncc3Cl)ccc21 (stereo partly drawn) [Example 115, 3-(6-(((3R,4R)-1-(5-chloro-4-((1-isopropyl-2-oxoindolin-5-yl)amino)pyrimidin-2-yl)-3-methylpiperidin-4-yl)amino)-1-methyl-1H-indazol-3-yl)piperidine-2,6-dione] | < 20% | –
Cn1nc(C2CCC(=O)NC2=O)c2ccc(NC3CCN(c4ncc(Cl)c(Nc5ccc6c(c5)CC(=O)N6CCO)n4)CC3)cc21 (stereo not shown) [Example 41, 3-[6-[[1-[5-chloro-4-[[1-(2-hydroxyethyl)-2-oxo-indolin-5-yl]amino]pyrimidin-2-yl]-4-piperidyl]amino]-1-methyl-indazol-3-yl]piperidine-2,6-dione] | 20 to 60% | –
CN1C(=O)Cc2cc(Nc3nc(N4CCC(Nc5ccc6c(C7CCC(=O)NC7=O)nn(C)c6c5)CC4)ncc3Cl)ccc21 (single isomer, unassigned) [Example 53] | – | ^^ (20-60%)
C[C@@H]1CN(c2ncc(Cl)c(Nc3ccc4c(c3F)CC(=O)N4C)n2)CC[C@H]1Nc1ccc2c([C@H]3CCC(=O)NC3=O)nn(C)c2c1 (single isomer, unassigned) [Example 99] | < 20% | –
Cn1nc(N2CCC(=O)NC2=O)c2ccc(NC3CCN(c4ncc(Cl)c(Nc5ccc6c(c5)CC(=O)N6CC(F)(F)F)n4)CC3)cc21 [Example 136, 1-(6-((1-(5-chloro-4-((2-oxo-1-(2,2,2-trifluoroethyl)indolin-5-yl)amino)pyrimidin-2-yl)piperidin-4-yl)amino)-1-methyl-1H-indazol-3-yl)dihydropyrimidine-2,4(1H,3H)-dione] | > 60% | –
CN1C(=O)Cc2cc(Nc3nc(N4CCC(N(C)c5ccc6c(C7CCC(=O)NC7=O)nn(C)c6c5)CC4)ncc3Cl)ccc21 (stereo not shown) [Example 7, 3-(6-((1-(5-chloro-4-((1-methyl-2-oxoindolin-5-yl)amino)pyrimidin-2-yl)piperidin-4-yl)(methyl)amino)-1-methyl-1H-indazol-3-yl)piperidine-2,6-dione] | > 60% | –
CN1C(=O)Cc2cc(Nc3nc(N4CC[C@H](Nc5ccc6c(C7CCC(=O)NC7=O)nn(C)c6c5)[C@H](CO)C4)ncc3Cl)ccc21 (stereo partly drawn) [Example 58, 3-(6-(((3R,4S)-1-(5-chloro-4-((1-methyl-2-oxoindolin-5-yl)amino)pyrimidin-2-yl)-3-(hydroxymethyl)piperidin-4-yl)amino)-1-methyl-1H-indazol-3-yl)piperidine-2,6-dione] | 20 to 60% | –
CN1C(=O)Cc2cc(Nc3nc(N4CC[C@@H](N(C)c5ccc6c(C7CCC(=O)NC7=O)nn(C)c6c5)[C@H](F)C4)ncc3Cl)ccc21 (stereo partly drawn) [Example 46, 3-[6-[[(3R,4R)-1-[5-Chloro-4-[(1-methyl-2-oxo-indolin-5-yl)amino]pyrimidin-2-yl]-3-fluoro-4-piperidyl]-methyl-amino]-1-methyl-indazol-3-yl]piperidine-2,6-dione] | > 60% | –
Cn1nc(C2CCC(=O)NC2=O)c2ccc(N3CCN(c4ncc(Cl)c(Nc5ccc6c(c5)CC(=O)N6)n4)CC3)cc21 (stereo not shown) [Example 34, 3-(6-(4-(5-chloro-4-((2-oxoindolin-5-yl)amino)pyrimidin-2-yl)piperazin-1-yl)-1-methyl-1H-indazol-3-yl)piperidine-2,6-dione] | > 60% | –
C[C@@H]1CN(c2ncc(C#N)c(Nc3ccc4c(c3)CC(=O)N4C)n2)CC[C@H]1Nc1ccc2c(C3CCC(=O)NC3=O)nn(C)c2c1 (stereo partly drawn) [Example 113, 2-((3R,4R)-4-((3-(2,6-dioxopiperidin-3-yl)-1-methyl-1H-indazol-6-yl)amino)-3-methylpiperidin-1-yl)-4-((1-methyl-2-oxoindolin-5-yl)amino)pyrimidine-5-carbonitrile] | < 20% | –
C[C@@H]1CN(c2ncc(Cl)c(Nc3cc(F)c4c(c3)CC(=O)N4C)n2)CC[C@H]1Nc1ccc2c([C@H]3CCC(=O)NC3=O)nn(C)c2c1 (single isomer, unassigned) [Example 96] | < 20% | –
C[C@H]1C[C@H](N(C)c2ccc3c([C@@H]4CCC(=O)NC4=O)nn(C)c3c2)CCN1c1ncc(Cl)c(Nc2ccc3c(c2)CC(=O)N3C)n1 (single isomer, unassigned) [Example 88] | > 60% | –
CO[C@@H]1CN(c2nc(F)c(Cl)c(Nc3ccc4c(c3)CC(=O)N4C)n2)CC[C@H]1Nc1ccc2c(N3CCC(=O)NC3=O)nn(C)c2c1 [Example 158, 1-(6-(((3R,4R)-1-(5-chloro-4-fluoro-6-((1-methyl-2-oxoindolin-5-yl)amino)pyrimidin-2-yl)-3-methoxypiperidin-4-yl)amino)-1-methyl-1H-indazol-3-yl) dihydropyrimidine-2,4(1H,3H)-dione] | 20 to 60% | –
C[C@@H]1CN(c2ncc(Cl)c(Nc3ccc4c(c3F)CC(=O)N4C)n2)CC[C@H]1Nc1ccc2c([C@@H]3CCC(=O)NC3=O)nn(C)c2c1 (single isomer, unassigned) [Example 100] | < 20% | –
CN1C(=O)Cc2cc(Nc3nc(N4CCC(Nc5ccc6c(N7CCC(=O)NC7=O)nn(C)c6c5)CC4)ncc3Cl)ccc21 [Example 135, 1-(6-((1-(5-chloro-4-((1-methyl-2-oxoindolin-5-yl)amino)pyrimidin-2-yl)piperidin-4-yl)amino)-1-methyl-1H-indazol-3-yl)dihydropyrimidine-2,4(1H,3H)-dione] | > 60% | –
CN1C(=O)Cc2cc(Nc3nc(N4CCC(Nc5ccc6c(C7CCC(=O)NC7=O)nn(C)c6c5)C(F)(F)C4)ncc3Cl)ccc21 (stereo not shown) [Example 64, 3-(6-((1-(5-Chloro-4-((1-methyl-2-oxoindolin-5-yl)amino)pyrimidin-2-yl)-3,3-difluoropiperidin-4-yl)amino)-1-methyl-1H-indazol-3-yl)piperidine-2,6-dione] | > 60% | –

Source: patent publication US12404239B2, “Modulators of BCL6 as ligand directed degraders” (Celgene Corporation, priority 2022, dated 2025)
